Source: article PMC9137037 (Frontiers in Oncology, 2022)
Where no end group is shown, it is not given here.

Test system: beagle dogs
Experiment: Safety observations in immunized beagle dogs
Format: in vivo, dog
Method: In brief, the beagle dogs were purchased from Covance Research Products (Cumberland, VA, USA) and were housed in the Ohio State University Veterinarian Facility Institutional Animal Care Facility. The dogs were housed at 19°C−24°C room temperature with approximately 70% humidity, and 12 h light and 12 h dark–light cycle. The dogs’ body weights were at least 7.5 kg when they received the first immunization. […] The dogs received a total of 4 doses, immunization was done at the rear thigh with two sites of injections, the bleed was collected as indicated time points to monitor the antibody titers, and the body weight of each dog was monitored closely (see Figures 3B, C for detail).
This study was designed to monitor the kinetics of how quickly the antibody levels to MVF-PD-1(92-110) diminished after the dosing was stopped. The recall of an antibody response was also tested after re-challenge. Four beagle dogs were used in this study of MVF-PD-1(92-110) peptide cancer vaccine. Dogs #1, #2, and #3 were treated with MVF-PD-1(92-110) emulsified with nor-MDP and ISA 720 using different doses ( Figure 3A ). Dog#1 was treated with 1.0 mg low-dose peptide, dog#2 was treated with 1.5 mg medium-dose peptide, and dog #3 was treated with 3.0 mg high-dose peptide. The negative control dog #10 was only treated with the MVF peptide emulsified with nor-MDP and Montanide ISA720. Dogs were immunized 4 times designated as 1Y, 2Y, 3Y, and 4Y at Day 0, Day 35, Day 56, and 6 months after primary immunization, respectively. Blood was collected every 2 weeks, except for the first collection, which was 3 weeks after the primary immunization and 1 week after 2Y and 3Y immunization ( Figure 3B ). The sera were used to monitor the antibody titers. We monitored the beagle dogs’ body weight closely during the immunization period ( Figure 3C ).
• a) Beagle dogs were immunized with MVF-PD-1 (92-110) (3 dogs with 1 dog each at the doses of 1, 1.5, and 3 mg/dose). • b) All dogs administered with MVF-PD-1 (92-110) had high polyclonal anti-MVF-PD-1 (92-110) antibody titers. […] These injection site lesions were mostly attributed to the high volume of Montanide ISA 720 VG used in this study.

## KLLSLIKGVIVHRLEGVEGPSLGAISLAPKAQIKESLRAEL [MVF-PD-1(92-110)]
1, 1.5 and 3 mg/dose, 1 dog each, lesions resolved within a few weeks after dosing ceased, mostly attributed to high volume of Montanide ISA 720 VG
  dogs with adverse local reaction (lesions at or near the IM injection site): Two out of three
All dogs
  body weight by the end of the experiment compared with the initial weight: gained some weight
Beagle dogs
  induction of autoimmune responses: has not been observed
dog
  safety (summary): safe
